The source of these data is patent publication US20230233569A1 (Revolution Medicines, Inc., priority 2020, published 2023).

Assay [1] concerns AsPC-1 (K-Ras G12D). Put plainly: Potency assay: pERK. The following applies: Homo sapiens. It is filed as cell-based.
In assay [2] the test system is AsPC-1 (K-Ras G12D). As to the kind of experiment: CellTiter-Glo cell viability assay. The assay is classed as cell-based. Particulars: Homo sapiens, ASPC1, 120 h. An outline of the steps:
(§1)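 Percent-of-DMSO luminescence values (CellTiter-Glo, day 5, plates equilibrated ~30 minutes at ambient temperature) were curve-fitted using a 4-parameter logistic equation; compounds had been added straight into wells containing the cells.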

For assay [3], the system named is NCI-H358 (K-Ras G12C). Put plainly: CellTiter-Glo cell viability assay. The assay is classed as cell-based. Particulars: Homo sapiens, NCI-H358, 120 h. An outline of the steps: as §1
A general note: In ATP-based viability assays light output follows the ATP content of the culture.

The target in assay [4] is KRAS G12D (Homo sapiens, UniProt P01116+P62937, G12D). As to the kind of experiment: Ras-Raf disruption / FRET / MOA assay (BRAF RBD). It is filed as biochemical. Particulars: with Cyclophilin A. An outline of the steps:
(§2)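 Compound-induced Ras–Cyclophilin A ternary complex disrupting BRAF RBD binding, read as IC50 from reduced TR-FRET ratio relative to DMSO. Final: Ras-GMPPNP 12.5 nM, BRAF RBD 50 nM, Cyclophilin A 25 μM, top compound 30 μM (3-fold, 10 points); 3 h at 25 °C, then 1.5 h with detection antibodies.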

Assay [5] has as its target KRAS G12S (Homo sapiens, UniProt P01116+P62937, G12S). Put plainly: Ras-Raf disruption / FRET / MOA assay (BRAF RBD). The assay is classed as biochemical. Particulars: with Cyclophilin A. An outline of the steps: as §2
For assay [6], the target named is KRAS G12V (Homo sapiens, UniProt P01116+P62937, G12V). Put plainly: Ras-Raf disruption / FRET / MOA assay (BRAF RBD). The assay is classed as biochemical. Particulars: with Cyclophilin A. Put shortly: as §2
KRAS G12V, sequence (P01116 1-169 isoform P01116-2 G12V limits assumed): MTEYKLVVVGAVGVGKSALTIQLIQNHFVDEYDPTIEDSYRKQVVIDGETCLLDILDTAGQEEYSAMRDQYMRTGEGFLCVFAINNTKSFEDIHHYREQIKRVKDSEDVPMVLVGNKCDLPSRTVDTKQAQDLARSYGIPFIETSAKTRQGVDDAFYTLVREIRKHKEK
KRAS G12V, sequence (P62937 whole entry): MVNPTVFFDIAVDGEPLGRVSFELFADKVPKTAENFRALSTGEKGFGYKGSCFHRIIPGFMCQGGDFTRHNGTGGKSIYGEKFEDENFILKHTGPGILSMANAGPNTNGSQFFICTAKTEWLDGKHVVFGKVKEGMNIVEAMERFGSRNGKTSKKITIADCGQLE
The target in assay [7] is KRAS G13C (Homo sapiens, UniProt P01116+P62937, G13C). As to the kind of experiment: Ras-Raf disruption / FRET / MOA assay (BRAF RBD). The assay is classed as biochemical. Particulars: with Cyclophilin A. An outline of the steps: as §2
KRAS G13C, sequence (P01116 1-169 isoform P01116-2 G13C limits assumed): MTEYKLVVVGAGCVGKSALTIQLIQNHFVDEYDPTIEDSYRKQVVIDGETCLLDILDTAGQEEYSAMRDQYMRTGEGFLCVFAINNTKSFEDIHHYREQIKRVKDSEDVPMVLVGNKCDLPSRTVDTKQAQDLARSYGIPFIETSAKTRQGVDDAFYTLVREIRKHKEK
KRAS G13C, sequence (P62937 whole entry): as the sequence (P62937 whole entry) above
Assay [8] has as its target KRAS G13D (Homo sapiens, UniProt P01116+P62937, G13D). Put plainly: Ras-Raf disruption / FRET / MOA assay (BRAF RBD). The assay is classed as biochemical. The following applies: with Cyclophilin A. An outline of the steps:
as §2

For assay [9], the target named is KRAS WT (Homo sapiens, UniProt P01116+P62937). As to the kind of experiment: Ras-Raf disruption / FRET / MOA assay (BRAF RBD). The assay is classed as biochemical. The following applies: with Cyclophilin A. An outline of the steps:
as §2

Assay [10] deals with NRAS G12C (Homo sapiens, UniProt P01111+P62937, G12C). Put plainly: Ras-Raf disruption / FRET / MOA assay (BRAF RBD). The assay is classed as biochemical. An outline of the steps:
as §2

Assay [11] concerns the target KRAS G12C (Homo sapiens, UniProt P01116+P62937, G12C). Put plainly: Ras-Raf disruption / FRET / MOA assay (BRAF RBD). The assay is classed as biochemical. The following applies: with Cyclophilin A. Put shortly:
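TR-FRET read-out after 1.5 h with anti-His Eu-W1024 (10 nM) and anti-GST APC (50 nM), following 3 h at 25 °C of compound (top 30 μM, 3-fold, 10 points) with 25 μM Cyclophilin A, 12.5 nM GMPPNP-loaded K-Ras G12C and 50 nM BRAF RBD; IC50 reported.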

[12] abbreviates: ASPC1, AsPC-1 KRAS G12D, read-out: pERK EC50.
Where [13] appears, read: K-Ras G12D, 5-day treatment, read-out: AsPC-1 Cell Viability assay data IC50.
[14] abbreviates: K-Ras G12C, 5-day treatment, read-out: H358 Cell Viability assay data IC50.

Where two headings read alike, the source gives them in different places.

NRAS G12C, sequence (P01111 whole entry G12C): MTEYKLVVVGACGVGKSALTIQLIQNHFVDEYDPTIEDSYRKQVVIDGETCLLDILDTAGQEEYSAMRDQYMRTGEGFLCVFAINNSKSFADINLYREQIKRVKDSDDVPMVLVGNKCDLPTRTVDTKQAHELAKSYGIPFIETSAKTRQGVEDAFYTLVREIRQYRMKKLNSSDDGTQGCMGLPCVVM
NRAS G12C, sequence (P62937 whole entry): as the sequence (P62937 whole entry) above
KRAS G12S, sequence (P01116 1-169 isoform P01116-2 G12S limits assumed): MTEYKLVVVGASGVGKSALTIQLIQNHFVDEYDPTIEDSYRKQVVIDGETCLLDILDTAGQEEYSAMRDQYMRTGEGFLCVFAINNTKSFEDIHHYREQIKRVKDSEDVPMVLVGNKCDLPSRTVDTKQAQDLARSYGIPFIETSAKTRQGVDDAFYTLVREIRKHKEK
KRAS G12S, sequence (P62937 whole entry): as the sequence (P62937 whole entry) above
KRAS G13D, sequence (P01116 1-169 isoform P01116-2 G13D limits assumed): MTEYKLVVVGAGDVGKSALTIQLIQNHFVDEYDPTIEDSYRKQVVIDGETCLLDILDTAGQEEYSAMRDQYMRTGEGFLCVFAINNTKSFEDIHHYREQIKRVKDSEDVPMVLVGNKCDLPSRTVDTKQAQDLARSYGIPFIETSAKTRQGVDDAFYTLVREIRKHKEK
KRAS G13D, sequence (P62937 whole entry): as the sequence (P62937 whole entry) above
KRAS WT, sequence (P01116 1-169 isoform P01116-2 limits assumed): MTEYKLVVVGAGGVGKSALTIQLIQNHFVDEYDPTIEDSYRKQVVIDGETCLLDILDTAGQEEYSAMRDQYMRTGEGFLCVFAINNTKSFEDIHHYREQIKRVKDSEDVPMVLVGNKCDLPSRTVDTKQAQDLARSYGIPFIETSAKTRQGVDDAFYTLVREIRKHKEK
KRAS WT, sequence (P62937 whole entry): as the sequence (P62937 whole entry) above
KRAS G12C, sequence (P01116 1-169 isoform P01116-2 G12C limits assumed): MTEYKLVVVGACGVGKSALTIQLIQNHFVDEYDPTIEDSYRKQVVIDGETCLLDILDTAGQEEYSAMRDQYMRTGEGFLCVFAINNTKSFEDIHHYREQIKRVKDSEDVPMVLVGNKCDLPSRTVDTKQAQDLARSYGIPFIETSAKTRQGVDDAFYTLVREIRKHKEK
KRAS G12C, sequence (P62937 whole entry): as the sequence (P62937 whole entry) above
KRAS G12D, sequence (P01116 1-169 isoform P01116-2 G12D limits assumed): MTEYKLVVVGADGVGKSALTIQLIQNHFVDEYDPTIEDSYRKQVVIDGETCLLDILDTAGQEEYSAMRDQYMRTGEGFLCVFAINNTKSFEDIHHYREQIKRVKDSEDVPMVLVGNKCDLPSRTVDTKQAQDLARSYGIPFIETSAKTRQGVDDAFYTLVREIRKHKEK
KRAS G12D, sequence (P62937 whole entry): as the sequence (P62937 whole entry) above

The EC50 is the midpoint of the concentration-response curve. In general, IC50 refers to the concentration that inhibits the measured activity by half. Take `CCn1c(-c2cccnc2[C@H](C)OC)c2c3cc(ccc31)-c1cccc(c1)C[C@H](NC(=O)[C@H](C(C)C)N(C)C(=O)[C@H]1CCN(C(=O)[C@H]3CN3)C1)C(=O)N1CCC[C@H](N1)C(=O)OCC(C)(C)C2` [Example 106]: in assay [1] (setting [12]), the EC50 was below 5 µM. The IC50 in assay [2] (setting [13]) was 1 to 10 µM; in assay [3] (setting [14]), below 0.01 µM; in [4] (Ras-Raf disruption, read-out: KRAS G12D FRET data IC50), 1 to 10 µM; in [5] (Ras-Raf disruption, read-out: KRAS G12S FRET data IC50), 1 to 10 µM; in [6] (Ras-Raf disruption, read-out: KRAS G12V FRET data IC50) it was 1 to 10 µM; in assay [7] (Ras-Raf disruption, read-out: KRAS G13C FRET data IC50), 0.1 to 1 µM. The IC50 lay in the range of 1 to 10 µM in assay [8] (Ras-Raf disruption, read-out: KRAS G13D FRET data IC50); 1 to 10 µM in assay [9] (Ras-Raf disruption, read-out: KRAS WT FRET data IC50); 0.01 to 0.1 µM in [10] (NRAS G12C, read-out: NRAS G12C FRET data IC50); 0.01 to 0.1 µM in assay [11] (Ras-Raf disruption, read-out: KRAS G12C FRET data IC50).
For `CCn1c(-c2cccnc2[C@H](C)OC)c2c3cc(ccc31)-c1cccc(c1)C[C@H](NC(=O)[C@H](C(C)C)N(C)C(=O)CN(C)C(=O)[C@H]1CN1)C(=O)N1CCC[C@H](N1)C(=O)OCC(C)(C)C2` [Example 107], the EC50 in assay [1] (ASPC1, read-out: pERK EC50) was below 5 µM. The IC50 in assay [2] (read-out: AsPC-1 Cell Viability assay data IC50, K-Ras G12D, 5-day treatment) was 1 to 10 µM; in assay [3] (read-out: H358 Cell Viability assay data IC50, K-Ras G12C, 5-day treatment) it was 0.1 to 1 µM; in assay [4] (KRAS G12D FRET data IC50, Ras-Raf disruption), 1 to 10 µM; in assay [5] (KRAS G12S FRET data IC50, Ras-Raf disruption), 1 to 10 µM; in [6] (KRAS G12V FRET data IC50, Ras-Raf disruption), 1 to 10 µM; in assay [7] (KRAS G13C FRET data IC50, Ras-Raf disruption), 0.1 to 1 µM. The IC50 in assay [8] (KRAS G13D FRET data IC50, Ras-Raf disruption) was in the range of 1 to 10 µM; in [9] (KRAS WT FRET data IC50, Ras-Raf disruption), 1 to 10 µM; in [10] (NRAS G12C FRET data IC50, NRAS G12C) it was 0.1 to 1 µM; in assay [11] (KRAS G12C FRET data IC50, Ras-Raf disruption), 0.1 to 1 µM.
Take `CCn1c(-c2cccnc2[C@H](C)OC)c2c3cc(ccc31)-c1cc(O)cc(c1)C[C@H](NC(=O)[C@H](C(C)C)N(C)C(=O)[C@@]1(C)CCCN1C(=O)[C@H]1CN1)C(=O)N1CCC[C@H](N1)C(=O)OCC(C)(C)C2` [Example 239]: the EC50 in assay [1] (setting [12]) is below 5 µM. Further, the results for the IC50 in assay [2] (setting [13]) and in [3] (setting [14]) were 0.1 to 1 µM and 0.01 to 0.1 µM, respectively.
With `CCn1c(-c2cccnc2[C@H](C)OC)c2c3cc(ccc31)-c1cc(O)cc(c1)C[C@H](NC(=O)[C@H](C(C)C)N(C)C(=O)[C@]1(C)CCCN1C(=O)[C@H]1CN1)C(=O)N1CCC[C@H](N1)C(=O)OCC(C)(C)C2` [Example 243], in [1] (setting [12]), the EC50 is below 5 µM. For the same molecule, the IC50 in assay [2] (setting [13]) and in assay [3] (setting [14]) was 0.1 to 1 µM throughout.
`CCn1c(-c2cccnc2[C@H](C)OC)c2c3cc(ccc31)-c1cc(O)cc(c1)C[C@H](NC(=O)[C@H](C(C)C)N(C)C(=O)[C@@H]1CO[C@H](C)CN1C(=O)[C@H]1CN1)C(=O)N1CCC[C@H](N1)C(=O)OCC(C)(C)C2` [Example 248]: in assay [1] (setting [12]), the concentration giving a half-maximal response (EC50) was below 5 µM. In addition, the figures for the IC50 in assay [2] (setting [13]) and in assay [3] (setting [14]) were 0.1 to 1 µM and 0.01 to 0.1 µM, respectively.
On to `CCn1c(-c2cccnc2[C@H](C)OC)c2c3cc(ccc31)-c1cc(O)cc(c1)C[C@H](NC(=O)[C@H](C(C)C)N(C)C(=O)[C@@H]1CO[C@H](C)CN1C(=O)[C@@H]1CN1)C(=O)N1CCC[C@H](N1)C(=O)OCC(C)(C)C2` [Example 249], for which, in [1] (setting [12]), the EC50 was below 5 µM. Besides, the IC50 in assay [2] (setting [13]) and in assay [3] (setting [14]) was 0.01 to 0.1 µM in each case.
